Reference: ChEMBL document CHEMBL5465560, “Selectivity Literature for EUbOPEN Chemogenomic Library” (2024)
One block for each molecule: values may come before it.

What was measured:
[1] = target: T1, Phosphorylase b kinase gamma catalytic chain, liver/testis isoform (Homo sapiens) (UniProt P15735); conditions: at 10 µM
T1 sequence (whole entry): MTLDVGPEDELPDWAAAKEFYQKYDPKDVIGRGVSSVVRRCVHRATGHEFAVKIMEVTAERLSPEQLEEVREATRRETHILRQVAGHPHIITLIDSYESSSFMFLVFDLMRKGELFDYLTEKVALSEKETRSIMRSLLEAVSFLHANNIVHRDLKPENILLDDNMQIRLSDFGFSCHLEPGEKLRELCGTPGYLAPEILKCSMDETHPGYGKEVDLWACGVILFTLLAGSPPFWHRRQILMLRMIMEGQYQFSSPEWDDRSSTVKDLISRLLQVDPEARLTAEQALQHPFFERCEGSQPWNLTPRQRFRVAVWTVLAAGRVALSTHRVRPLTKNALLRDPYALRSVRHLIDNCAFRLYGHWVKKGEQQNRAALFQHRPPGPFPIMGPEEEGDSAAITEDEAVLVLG

[2] = target: T2, Mitogen-activated protein kinase kinase kinase 15 (Homo sapiens) (UniProt Q6ZN16); assay: Selectivity interaction (KinomeScan (DiscoverX)) EUB0000655a MAP3K15; conditions: at 10 µM
T2 sequence (whole entry): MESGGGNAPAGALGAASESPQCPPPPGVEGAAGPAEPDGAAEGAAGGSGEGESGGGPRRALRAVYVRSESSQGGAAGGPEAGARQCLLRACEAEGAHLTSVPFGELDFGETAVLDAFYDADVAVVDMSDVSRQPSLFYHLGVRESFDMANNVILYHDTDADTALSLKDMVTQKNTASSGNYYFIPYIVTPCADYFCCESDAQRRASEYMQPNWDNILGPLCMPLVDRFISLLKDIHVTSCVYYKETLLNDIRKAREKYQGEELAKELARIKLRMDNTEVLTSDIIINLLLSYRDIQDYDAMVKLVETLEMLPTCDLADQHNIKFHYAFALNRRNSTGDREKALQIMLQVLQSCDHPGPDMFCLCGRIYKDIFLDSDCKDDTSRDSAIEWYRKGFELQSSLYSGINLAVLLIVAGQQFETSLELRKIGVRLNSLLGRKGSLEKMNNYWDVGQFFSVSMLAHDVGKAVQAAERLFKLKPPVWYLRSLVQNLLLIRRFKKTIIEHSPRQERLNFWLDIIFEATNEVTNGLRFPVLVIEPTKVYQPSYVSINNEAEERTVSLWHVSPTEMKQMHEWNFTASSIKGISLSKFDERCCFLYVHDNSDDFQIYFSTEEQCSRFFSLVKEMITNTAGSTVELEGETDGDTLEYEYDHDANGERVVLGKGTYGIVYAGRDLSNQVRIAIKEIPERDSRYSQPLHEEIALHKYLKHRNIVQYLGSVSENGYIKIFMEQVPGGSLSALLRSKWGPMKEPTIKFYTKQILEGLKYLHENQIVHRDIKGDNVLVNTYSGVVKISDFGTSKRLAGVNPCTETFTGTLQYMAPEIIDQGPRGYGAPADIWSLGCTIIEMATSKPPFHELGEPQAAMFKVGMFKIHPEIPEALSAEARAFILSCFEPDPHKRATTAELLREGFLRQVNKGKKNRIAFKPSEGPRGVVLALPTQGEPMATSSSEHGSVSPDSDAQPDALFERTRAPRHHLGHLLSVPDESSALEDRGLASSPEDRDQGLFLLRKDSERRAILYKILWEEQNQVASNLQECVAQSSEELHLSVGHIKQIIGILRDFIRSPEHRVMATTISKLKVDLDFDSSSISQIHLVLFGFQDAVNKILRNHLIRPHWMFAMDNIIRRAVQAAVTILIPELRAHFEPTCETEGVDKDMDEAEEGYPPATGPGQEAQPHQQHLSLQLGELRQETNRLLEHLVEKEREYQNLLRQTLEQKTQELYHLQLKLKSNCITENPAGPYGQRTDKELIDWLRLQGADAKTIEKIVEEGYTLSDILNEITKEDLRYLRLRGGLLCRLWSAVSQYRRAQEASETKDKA

[3] = target: Casein kinase I isoform gamma-3 (Homo sapiens) (UniProt Q9Y6M4); assay: Selectivity interaction (KinomeScan (DiscoverX)) EUB0001079a CSNK1G3; conditions: at 1 µM
[4] = target: MAP kinase-activated protein kinase 2 (Homo sapiens, UniProt P49137); assay: Selectivity interaction (KinomeScan (DiscoverX)) EUB0001079a MAPKAPK2; conditions: at 1 µM
[5] = target: T3, Serine/threonine-protein kinase Nek11 (Homo sapiens) (UniProt Q8NG66); assay: Selectivity interaction (KinomeScan (DiscoverX)) EUB0001619a NEK11; conditions: at 1 µM
T3 sequence (whole entry): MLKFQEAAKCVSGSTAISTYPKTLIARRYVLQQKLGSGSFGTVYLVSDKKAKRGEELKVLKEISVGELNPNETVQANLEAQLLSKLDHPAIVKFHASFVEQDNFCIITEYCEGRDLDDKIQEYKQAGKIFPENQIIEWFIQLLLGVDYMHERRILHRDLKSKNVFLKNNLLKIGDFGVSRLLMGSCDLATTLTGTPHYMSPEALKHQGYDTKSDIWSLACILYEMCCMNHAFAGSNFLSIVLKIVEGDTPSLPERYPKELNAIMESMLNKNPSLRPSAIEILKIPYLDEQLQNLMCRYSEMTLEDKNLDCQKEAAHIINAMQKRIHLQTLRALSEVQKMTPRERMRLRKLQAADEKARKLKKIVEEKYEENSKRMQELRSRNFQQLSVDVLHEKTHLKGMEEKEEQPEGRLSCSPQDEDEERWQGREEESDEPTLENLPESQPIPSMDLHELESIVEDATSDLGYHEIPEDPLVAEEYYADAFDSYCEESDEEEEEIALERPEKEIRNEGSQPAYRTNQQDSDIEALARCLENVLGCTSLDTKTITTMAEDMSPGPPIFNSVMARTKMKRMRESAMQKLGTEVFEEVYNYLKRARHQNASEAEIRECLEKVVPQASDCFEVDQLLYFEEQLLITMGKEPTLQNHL

[6] = system: Proto-oncogene tyrosine-protein kinase receptor Ret (Homo sapiens), P07949 [E762Q]; assay: (§1) Selectivity interaction (ProQinase) EUB0000171b RET
[7] = system: Proto-oncogene tyrosine-protein kinase receptor Ret (Homo sapiens), P07949 [G691S]; assay: as §1
[8] = system: Proto-oncogene tyrosine-protein kinase receptor Ret (Homo sapiens), P07949 [S891A]; assay: as §1
[9] = system: Proto-oncogene tyrosine-protein kinase receptor Ret (Homo sapiens), P07949 [V804L]; assay: as §1
[10] = system: Proto-oncogene tyrosine-protein kinase receptor Ret (Homo sapiens), P07949 [V804M]; assay: as §1
[11] = target: Proto-oncogene tyrosine-protein kinase receptor Ret (Homo sapiens, UniProt P07949); assay: as §1
[12] = target: Homeodomain-interacting protein kinase 2 (Homo sapiens, UniProt Q9H2X6); assay: Selectivity interaction (Enzymatic assay (Eurofins)) EUB0001049a HIPK2
Homeodomain-interacting protein kinase 2, sequence (Q9H2X6 whole entry): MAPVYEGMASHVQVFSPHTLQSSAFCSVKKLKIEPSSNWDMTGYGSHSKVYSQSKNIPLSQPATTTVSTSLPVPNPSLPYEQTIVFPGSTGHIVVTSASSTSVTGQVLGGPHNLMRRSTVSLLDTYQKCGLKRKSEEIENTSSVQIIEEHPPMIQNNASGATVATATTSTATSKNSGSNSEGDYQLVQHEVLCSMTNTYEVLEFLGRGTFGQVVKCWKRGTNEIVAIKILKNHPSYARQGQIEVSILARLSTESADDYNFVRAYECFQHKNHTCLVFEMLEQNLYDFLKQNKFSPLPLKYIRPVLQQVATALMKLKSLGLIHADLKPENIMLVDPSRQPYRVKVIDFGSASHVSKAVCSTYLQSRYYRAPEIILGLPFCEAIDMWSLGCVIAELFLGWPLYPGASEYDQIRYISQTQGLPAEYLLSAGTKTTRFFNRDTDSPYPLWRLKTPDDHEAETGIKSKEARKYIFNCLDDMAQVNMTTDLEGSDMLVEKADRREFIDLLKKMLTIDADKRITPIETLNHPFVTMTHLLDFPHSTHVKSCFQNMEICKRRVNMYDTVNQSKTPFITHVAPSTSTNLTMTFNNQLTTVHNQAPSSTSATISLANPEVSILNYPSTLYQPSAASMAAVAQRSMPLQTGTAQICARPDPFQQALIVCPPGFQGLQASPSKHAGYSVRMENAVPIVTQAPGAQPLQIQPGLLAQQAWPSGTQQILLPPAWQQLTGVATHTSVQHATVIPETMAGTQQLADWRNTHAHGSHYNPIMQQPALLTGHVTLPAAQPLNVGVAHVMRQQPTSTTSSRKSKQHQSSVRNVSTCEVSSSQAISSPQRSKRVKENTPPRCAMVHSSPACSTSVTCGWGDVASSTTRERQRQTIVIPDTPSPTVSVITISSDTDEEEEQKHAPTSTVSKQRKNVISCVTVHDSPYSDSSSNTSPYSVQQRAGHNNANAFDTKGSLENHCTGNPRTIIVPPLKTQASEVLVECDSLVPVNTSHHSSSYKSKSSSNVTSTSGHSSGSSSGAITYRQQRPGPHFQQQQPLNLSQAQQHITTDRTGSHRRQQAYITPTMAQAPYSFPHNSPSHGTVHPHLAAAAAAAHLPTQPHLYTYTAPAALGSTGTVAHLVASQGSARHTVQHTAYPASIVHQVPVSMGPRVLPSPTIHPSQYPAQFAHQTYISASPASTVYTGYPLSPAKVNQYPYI

Proto-oncogene tyrosine-protein kinase receptor Ret (Homo sapiens), P07949 [S891A], sequence (P07949 whole entry S891A): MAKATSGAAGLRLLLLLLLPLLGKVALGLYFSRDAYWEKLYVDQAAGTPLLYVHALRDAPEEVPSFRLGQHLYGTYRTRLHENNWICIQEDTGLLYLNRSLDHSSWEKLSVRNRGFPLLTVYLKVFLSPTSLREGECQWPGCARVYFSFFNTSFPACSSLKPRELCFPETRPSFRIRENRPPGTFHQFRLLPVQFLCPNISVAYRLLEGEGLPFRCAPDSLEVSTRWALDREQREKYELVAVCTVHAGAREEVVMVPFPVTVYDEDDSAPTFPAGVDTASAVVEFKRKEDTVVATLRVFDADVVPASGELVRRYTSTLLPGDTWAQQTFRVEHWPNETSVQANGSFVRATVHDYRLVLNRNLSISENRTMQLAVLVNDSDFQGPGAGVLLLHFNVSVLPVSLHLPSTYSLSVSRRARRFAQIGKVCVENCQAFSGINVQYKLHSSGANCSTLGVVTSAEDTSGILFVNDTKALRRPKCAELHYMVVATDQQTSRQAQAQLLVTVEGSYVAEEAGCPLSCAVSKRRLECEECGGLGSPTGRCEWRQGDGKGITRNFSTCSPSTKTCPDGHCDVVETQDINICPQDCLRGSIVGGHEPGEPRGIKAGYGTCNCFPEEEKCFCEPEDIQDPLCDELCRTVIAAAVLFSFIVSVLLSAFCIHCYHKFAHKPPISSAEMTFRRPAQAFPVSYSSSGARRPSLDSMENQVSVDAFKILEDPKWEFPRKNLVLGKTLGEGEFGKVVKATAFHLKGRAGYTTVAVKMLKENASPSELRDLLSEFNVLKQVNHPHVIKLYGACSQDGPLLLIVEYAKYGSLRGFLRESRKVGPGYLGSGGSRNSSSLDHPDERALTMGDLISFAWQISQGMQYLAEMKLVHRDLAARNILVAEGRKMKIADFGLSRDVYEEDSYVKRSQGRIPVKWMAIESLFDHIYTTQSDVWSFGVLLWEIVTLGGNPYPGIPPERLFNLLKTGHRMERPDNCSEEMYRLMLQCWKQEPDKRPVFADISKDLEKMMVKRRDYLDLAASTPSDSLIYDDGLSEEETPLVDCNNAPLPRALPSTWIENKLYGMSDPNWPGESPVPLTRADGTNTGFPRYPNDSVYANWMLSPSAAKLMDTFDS
Proto-oncogene tyrosine-protein kinase receptor Ret (Homo sapiens), P07949 [E762Q], sequence (P07949 61-1114 E762Q): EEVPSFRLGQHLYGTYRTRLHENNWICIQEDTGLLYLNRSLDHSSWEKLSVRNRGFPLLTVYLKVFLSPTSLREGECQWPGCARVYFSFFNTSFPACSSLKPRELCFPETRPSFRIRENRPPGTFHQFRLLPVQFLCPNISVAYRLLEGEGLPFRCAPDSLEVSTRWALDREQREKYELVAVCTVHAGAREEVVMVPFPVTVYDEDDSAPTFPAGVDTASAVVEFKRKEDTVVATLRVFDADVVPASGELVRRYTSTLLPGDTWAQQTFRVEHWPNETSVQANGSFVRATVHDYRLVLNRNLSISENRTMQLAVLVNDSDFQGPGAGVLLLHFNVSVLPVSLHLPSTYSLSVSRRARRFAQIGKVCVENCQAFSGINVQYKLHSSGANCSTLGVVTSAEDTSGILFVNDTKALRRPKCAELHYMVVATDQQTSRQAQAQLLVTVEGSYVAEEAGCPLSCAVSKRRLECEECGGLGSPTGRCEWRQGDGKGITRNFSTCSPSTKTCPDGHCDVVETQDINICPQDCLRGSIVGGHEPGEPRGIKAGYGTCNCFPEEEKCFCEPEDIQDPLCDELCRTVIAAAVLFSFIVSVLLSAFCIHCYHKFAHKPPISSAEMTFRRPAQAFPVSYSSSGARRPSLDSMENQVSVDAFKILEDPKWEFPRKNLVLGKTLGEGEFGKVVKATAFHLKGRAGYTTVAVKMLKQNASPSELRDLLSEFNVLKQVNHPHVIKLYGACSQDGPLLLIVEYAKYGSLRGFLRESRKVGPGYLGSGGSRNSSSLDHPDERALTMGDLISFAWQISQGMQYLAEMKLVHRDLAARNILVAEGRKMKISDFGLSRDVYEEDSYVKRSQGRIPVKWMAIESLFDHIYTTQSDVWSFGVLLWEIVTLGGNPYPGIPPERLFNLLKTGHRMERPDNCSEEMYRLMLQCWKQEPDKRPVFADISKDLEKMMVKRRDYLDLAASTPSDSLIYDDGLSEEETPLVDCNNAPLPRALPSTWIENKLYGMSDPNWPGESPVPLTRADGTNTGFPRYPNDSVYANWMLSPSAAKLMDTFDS
Proto-oncogene tyrosine-protein kinase receptor Ret (Homo sapiens), P07949 [V804M], sequence (P07949 whole entry V804M): as the sequence (P07949 whole entry S891A) above, with V804M, A891S counted along it
Proto-oncogene tyrosine-protein kinase receptor Ret (Homo sapiens), P07949 [G691S], sequence (P07949 whole entry G691S): as the sequence (P07949 whole entry S891A) above, with G691S, A891S counted along it
Proto-oncogene tyrosine-protein kinase receptor Ret, sequence (P07949 whole entry): as the sequence (P07949 whole entry S891A) above, with A891S counted along it
Proto-oncogene tyrosine-protein kinase receptor Ret (Homo sapiens), P07949 [V804L], sequence (P07949 whole entry V804L): as the sequence (P07949 whole entry S891A) above, with V804L, A891S counted along it
Casein kinase I isoform gamma-3 (Homo sapiens), sequence (Q9Y6M4 whole entry, looked up, canonical isoform): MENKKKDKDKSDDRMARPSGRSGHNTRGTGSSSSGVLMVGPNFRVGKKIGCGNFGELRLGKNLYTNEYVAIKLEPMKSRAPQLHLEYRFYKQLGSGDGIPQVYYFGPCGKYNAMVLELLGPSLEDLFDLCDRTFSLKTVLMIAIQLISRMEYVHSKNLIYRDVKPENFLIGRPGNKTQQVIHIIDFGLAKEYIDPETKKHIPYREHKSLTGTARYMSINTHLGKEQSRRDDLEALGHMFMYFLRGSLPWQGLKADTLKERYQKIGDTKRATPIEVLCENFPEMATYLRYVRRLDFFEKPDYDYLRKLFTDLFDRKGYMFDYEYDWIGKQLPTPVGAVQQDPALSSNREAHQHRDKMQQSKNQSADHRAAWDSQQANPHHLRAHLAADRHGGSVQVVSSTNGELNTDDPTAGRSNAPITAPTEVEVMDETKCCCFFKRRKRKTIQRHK
MAP kinase-activated protein kinase 2, sequence (P49137 whole entry, looked up): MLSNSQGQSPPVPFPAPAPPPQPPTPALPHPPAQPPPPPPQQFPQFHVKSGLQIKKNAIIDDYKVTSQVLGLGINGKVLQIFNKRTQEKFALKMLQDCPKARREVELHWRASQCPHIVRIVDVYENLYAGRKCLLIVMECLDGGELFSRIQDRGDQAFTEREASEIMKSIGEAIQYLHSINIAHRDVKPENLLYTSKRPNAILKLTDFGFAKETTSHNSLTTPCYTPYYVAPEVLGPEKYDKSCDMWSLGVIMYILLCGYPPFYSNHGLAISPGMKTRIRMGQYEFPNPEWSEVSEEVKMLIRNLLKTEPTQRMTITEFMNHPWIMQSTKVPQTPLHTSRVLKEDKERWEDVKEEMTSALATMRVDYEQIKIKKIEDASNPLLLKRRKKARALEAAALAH

% of control [1]: 100%
SMILES: CCN(CC)CCCCNc1ncc2cc(-c3cc(OC)cc(OC)c3)c(NC(=O)NC(C)(C)C)nc2n1

SMILES: CN(C)CCOc1ccc(-c2nc(-c3ccncc3)c(-c3ccc4c(c3)CC/C4=N\O)[nH]2)cc1
% of control [2]: 100%

SMILES: Nc1cnc(N2CCc3cc(S(=O)(=O)Nc4c(F)cc(Cl)cc4F)cc(N4CCCC4=O)c32)nc1 [TP-020n]
% of control [3]: 78%
% of control [4]: 100%

SMILES: N#Cc1cccc(-c2c[nH]c3ncnc(N4CCOCC4)c23)c1
% of control [5]: 100%

% of control ([6]; at 1 µM): 95%
% of control ([6]; at 5 µM): 78%
% of control ([7]; at 1 µM): 90%
% of control ([7]; at 5 µM): 77%
% of control ([8]; at 1 µM): 95%
% of control ([8]; at 5 µM): 74%
% of control ([9]; at 1 µM): 88%
% of control ([9]; at 5 µM): 80%
% of control ([10]; at 1 µM): 98%
% of control ([10]; at 5 µM): 90%
% of control ([11]; at 1 µM): 87%
% of control ([11]; at 5 µM): 72%
SMILES: C=CC(=O)Nc1cccc(C(=O)Nc2ccc(Nc3cc(-c4[nH]c(SC)nc4C)ccn3)cc2)c1

SMILES: COc1cc(Nc2nc(C)cc(-c3cnn4nc(OC)ccc34)n2)cc(C(F)(F)F)c1
IC50 [12]: > 10 µM
